Tests used:
MST1 = target: T1, MST1 (Homo sapiens, UniProt Q13043); test: Ki determination for kinases with greater than 90% inhibition (Reaction Biology); format: biochemical; details: calculated from IC50 using the Cheng-Prusoff equation
T1 construct: purchased Reaction Biology Corporation (contract assay)
Experimental: (§1) Kinase assay. The ADP Glo^TM kinase assay (Promega, Madison, WI, USA) was used to assess the inhibition by CDDD11-8 of CDKs 1, 2, 4, 6, 7, and 9, as well as the mutant isoforms of FLT3. The assays were performed in accord with the manufacturer’s protocol (Promega) as described previously. Briefly, serial three-fold dilutions of CDDD11-8 were prepared in 100% DMSO from a 2 mM stock solution, followed by 1:40 dilution into Milli-Q water. Subsequently, 1 µL of each sample was incubated with 4 µL of kinase mixture containing a particular CDK enzyme and its substrate, standard kinase buffer [3 mM MgCl2, 50 mM HEPES-NaOH pH 7.5, 3 mM MnCl2, 3 µM Na-orthovanadate, 1 mM dithiothreitol (DTT)], kinase dilution buffer (containing 0.25 mg/mL PEG20,000, 50 mM HEPES-NaOH pH 7.5, 1 mM DTT), and ATP at 37 °C for 30 to 40 min. The final reaction mixture contained 0.5% DMSO in all samples, and the applied kinase concentrations were 1, 1, 10, 40, 20, and 50 nM for CDK1, 2, 4, 6, 7, and 9, respectively. The reaction was stopped by adding ADP-Glo reagent and the mixture was incubated further in the dark at room temperature for 40 min. As a final step, kinase detection reagent was added to each mixture and incubated at room temperature for 30 to 60 min. Luminescence was read using an EnVision® multilabel plate reader (PerkinElmer, Beaconsfield, UK), and half-maximum inhibitory concentrations (IC50) were calculated using a non-linear regression model with a variable slope, plotting log (inhibitor concentration) vs. response using the following formula: Ar%=Bottom+Top−Bottom/1+Inhibitor Concentration/IC50^HillSlope where the relative activity Ar (%) is the signal relative to the controls, IC50 is the half maximum concentration, Hillslope is the steepness of the dose-response curve, Top and Bottom are plateaus reflecting the maximum and minimum in responses on the Y-axis (GraphPad Prism version 7, San Diego, CA, USA). Ki values were calculated from the IC50 using the Cheng−Prusoff equation [32]. Extensive specificity assessment was carried out by Reaction Biology Corporation (Malvern, PA, USA) with 369 kinases using 1 µM CDDD11-8 concentration in a Kinase Hotspot radiolabel assay (for experimental details, please see (Reaction Biology https://www.reactionbiology.com/). Subsequently, Ki values were determined for kinases with greater than 90% inhibition.

TNIK = target: T2, TNIK (Homo sapiens, UniProt Q9UKE5); test: as above; format: biochemical; details: calculated from IC50 using the Cheng-Prusoff equation
T2 construct: purchased Reaction Biology Corporation (Kinase HotSpot)
T2 sequence (Q9UKE5 whole entry): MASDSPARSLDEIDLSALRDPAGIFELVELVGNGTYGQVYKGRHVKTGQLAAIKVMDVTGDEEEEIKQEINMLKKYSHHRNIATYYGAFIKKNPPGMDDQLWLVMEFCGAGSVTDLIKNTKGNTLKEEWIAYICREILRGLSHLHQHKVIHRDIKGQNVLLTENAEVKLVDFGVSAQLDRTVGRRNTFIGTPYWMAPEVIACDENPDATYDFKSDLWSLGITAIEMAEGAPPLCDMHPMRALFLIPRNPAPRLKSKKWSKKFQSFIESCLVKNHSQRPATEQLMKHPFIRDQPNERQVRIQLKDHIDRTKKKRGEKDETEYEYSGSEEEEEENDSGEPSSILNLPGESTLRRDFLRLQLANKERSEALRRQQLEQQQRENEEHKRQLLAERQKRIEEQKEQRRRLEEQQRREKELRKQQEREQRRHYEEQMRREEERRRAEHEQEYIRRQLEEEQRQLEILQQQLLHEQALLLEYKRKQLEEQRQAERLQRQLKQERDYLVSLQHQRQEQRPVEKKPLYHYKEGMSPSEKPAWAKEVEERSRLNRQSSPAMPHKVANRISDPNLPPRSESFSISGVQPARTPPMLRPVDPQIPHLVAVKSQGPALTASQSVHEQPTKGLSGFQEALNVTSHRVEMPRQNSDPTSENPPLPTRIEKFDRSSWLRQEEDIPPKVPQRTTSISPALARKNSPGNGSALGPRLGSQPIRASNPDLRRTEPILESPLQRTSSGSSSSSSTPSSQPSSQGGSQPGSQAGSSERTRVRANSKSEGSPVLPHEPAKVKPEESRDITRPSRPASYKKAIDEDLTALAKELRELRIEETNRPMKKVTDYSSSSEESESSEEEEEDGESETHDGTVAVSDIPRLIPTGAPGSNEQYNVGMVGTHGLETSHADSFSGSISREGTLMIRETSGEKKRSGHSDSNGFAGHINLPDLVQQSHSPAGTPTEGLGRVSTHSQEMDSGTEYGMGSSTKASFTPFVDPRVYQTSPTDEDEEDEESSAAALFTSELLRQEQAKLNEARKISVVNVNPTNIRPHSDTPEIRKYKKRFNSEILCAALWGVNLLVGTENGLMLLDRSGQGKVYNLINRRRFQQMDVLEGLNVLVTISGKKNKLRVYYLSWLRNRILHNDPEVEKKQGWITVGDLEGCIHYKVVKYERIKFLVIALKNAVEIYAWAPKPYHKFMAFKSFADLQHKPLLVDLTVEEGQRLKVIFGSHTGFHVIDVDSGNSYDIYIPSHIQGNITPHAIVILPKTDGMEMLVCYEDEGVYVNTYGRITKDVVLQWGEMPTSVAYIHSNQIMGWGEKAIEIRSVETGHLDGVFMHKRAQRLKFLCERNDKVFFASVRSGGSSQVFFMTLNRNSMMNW
Experimental: as §1

Pharmacokinetics in mice = format: in vivo, BALB/c hairy mice
Experimental: Pharmacokinetics. The pharmacokinetics of CDDD11-8 was determined in mice after single oral (PO) and intravenous (IV) doses. CDDD11-8 was administered at a dose of 10 or 100 mg/kg PO or 2 mg/kg IV to BALB/c hairy mice (n = 10 per route of administration; both male and female). The IV dose consisted of CDDD11-8 dissolved in 10/90 N-methyl-2-pyrrolidone (NMP)/acetate buffer (pH 4.5), while the PO doses of CDDD11-8 were dissolved in acetate buffer at pH 4.74. At nominal times, up to three blood samples were collected from individual mice at non-consecutive times from the right cheek, left cheek, and heart of an individual mouse. The concentrations in these samples were measured by validated LC-MS/MS methods (limit of quantification = 5 ng/mL). Pharmacokinetic parameters were estimated after fitting compartmental models to the concentration–time data (Phoenix, Certara, NJ, USA). Specifically, a one-compartmental kinetic model with first-order input was used after an oral dose, and a two-compartmental model was fitted to the IV data. Acceptability of models was evaluated from values for Akaike Information Criterion (AIC), Schwarz’s Bayesian Criterion (SIB), and % Coefficient of Variance (CV) for parameters, where lower values were indicative of a better fit. Other considerations were variances in the concentrations of quality control samples and visual inspection of model fit. Oral bioavailability (F) was calculated from values of AUC after PO and IV administration after correcting for the differences in doses.

T1 sequence (Q13043 whole entry): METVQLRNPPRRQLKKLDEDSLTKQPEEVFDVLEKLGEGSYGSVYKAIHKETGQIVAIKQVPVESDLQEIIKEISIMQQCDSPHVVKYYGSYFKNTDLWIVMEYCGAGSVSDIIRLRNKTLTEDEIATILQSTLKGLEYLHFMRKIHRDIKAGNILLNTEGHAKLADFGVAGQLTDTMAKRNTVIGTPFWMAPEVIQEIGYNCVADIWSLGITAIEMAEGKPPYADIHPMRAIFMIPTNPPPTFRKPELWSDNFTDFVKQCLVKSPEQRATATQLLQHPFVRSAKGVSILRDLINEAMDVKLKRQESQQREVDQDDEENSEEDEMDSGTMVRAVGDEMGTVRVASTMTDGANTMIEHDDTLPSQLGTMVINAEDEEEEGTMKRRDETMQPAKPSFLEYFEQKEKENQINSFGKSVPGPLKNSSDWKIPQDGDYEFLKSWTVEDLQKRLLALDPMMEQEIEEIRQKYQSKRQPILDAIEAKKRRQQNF

With `Cc1cnc(N[C@H]2CC[C@H](N)CC2)nc1-c1cnc2ccc(-c3ccccc3)cn12` [CDDD11-8] the Ki (MST1) was 9 nM, the Ki (TNIK) was 3 nM and the “oral bioavailability predicted from hepatic extraction” value (Pharmacokinetics in mice) was “about 43%”. For the same compound, the “plasma exposure after 100 mg/kg PO relative to 10 mg/kg” value (Pharmacokinetics in mice) was 19 times, the plasma exposure (Pharmacokinetics in mice; PO 10 mg/kg) was 3.4 µM·h and the plasma exposure (Pharmacokinetics in mice; PO 100 mg/kg) was 64 µM·h. For the same compound, the “extraction by the liver” value (Pharmacokinetics in mice; blood clearance vs hepatic blood flow 5.4 L/h.kg) was ~57%, the clearance (Pharmacokinetics in mice; both sexes, BALB/c hairy, mouse, IV 2 mg/kg, plasma, ± standard error of the estimate, read-out: CL (converted)) was 36.8 mL/min/kg and the concentration at 0.03 h (Pharmacokinetics in mice; both sexes, BALB/c hairy, mouse, plasma, IV 2 mg/kg, 0.03 h, read-out: Plasma Conc.) was 2290 ng/mL. The concentration at 0.07 h (Pharmacokinetics in mice; both sexes, BALB/c hairy, mouse, plasma, IV 2 mg/kg, 0.07 h, read-out: Plasma Conc.) was 2150 ng/mL, the concentration at 0.1 h (Pharmacokinetics in mice; both sexes, BALB/c hairy, mouse, plasma, IV 2 mg/kg, 0.10 h, read-out: Plasma Conc.) was 1310 ng/mL and the concentration at 0.17 h (Pharmacokinetics in mice; both sexes, BALB/c hairy, mouse, plasma, IV 2 mg/kg, 0.17 h, read-out: Plasma Conc.) was 1070 ng/mL. For the same compound, the concentration at 0.2 h (Pharmacokinetics in mice; both sexes, BALB/c hairy, mouse, plasma, IV 2 mg/kg, 0.20 h, read-out: Plasma Conc.) was 1020 ng/mL, the concentration at 0.3 h (Pharmacokinetics in mice; both sexes, BALB/c hairy, mouse, plasma, IV 2 mg/kg, 0.30 h, read-out: Plasma Conc.) was 781 ng/mL and the concentration at 0.53 h (Pharmacokinetics in mice; both sexes, BALB/c hairy, mouse, plasma, IV 2 mg/kg, 0.53 h, read-out: Plasma Conc.) was 367 ng/mL. The concentration at 0.68 h (Pharmacokinetics in mice; both sexes, BALB/c hairy, mouse, plasma, IV 2 mg/kg, 0.68 h, read-out: Plasma Conc.) was 271 ng/mL, the concentration at 1.4 h (Pharmacokinetics in mice; both sexes, BALB/c hairy, mouse, plasma, IV 2 mg/kg, 1.4 h, read-out: Plasma Conc.) was 132 ng/mL and the concentration at 2.1 h (Pharmacokinetics in mice; both sexes, BALB/c hairy, mouse, plasma, IV 2 mg/kg, 2.1 h, read-out: Plasma Conc.) was 50 ng/mL. For the same compound, the concentration at 3.4 h (Pharmacokinetics in mice; both sexes, BALB/c hairy, mouse, plasma, IV 2 mg/kg, 3.4 h, read-out: Plasma Conc.) was 20 ng/mL, the concentration at 4.1 h (Pharmacokinetics in mice; both sexes, BALB/c hairy, mouse, plasma, IV 2 mg/kg, 4.1 h, read-out: Plasma Conc.) was 11 ng/mL and the concentration at 5.4 h (Pharmacokinetics in mice; both sexes, BALB/c hairy, mouse, plasma, IV 2 mg/kg, 5.4 h, read-out: Plasma Conc.) was 3 ng/mL. It also gave a concentration at 6 h (Pharmacokinetics in mice; both sexes, BALB/c hairy, mouse, plasma, IV 2 mg/kg, 6 h, read-out: Plasma Conc.) of 3.2 ng/mL, a concentration at 7 h (Pharmacokinetics in mice; both sexes, BALB/c hairy, mouse, plasma, IV 2 mg/kg, 7 h, read-out: Plasma Conc.) of 2.4 ng/mL and a concentration at 7.7 h (Pharmacokinetics in mice; both sexes, BALB/c hairy, mouse, plasma, IV 2 mg/kg, 7.7 h, read-out: Plasma Conc.) of 2.8 ng/mL. The concentration at 8 h (Pharmacokinetics in mice; both sexes, BALB/c hairy, mouse, plasma, IV 2 mg/kg, 8 h, read-out: Plasma Conc.) was 2.8 ng/mL, the concentration at 8.8 h (Pharmacokinetics in mice; both sexes, BALB/c hairy, mouse, plasma, IV 2 mg/kg, 8.8 h, read-out: Plasma Conc.) was 2 ng/mL and the concentration at 9.5 h (Pharmacokinetics in mice; both sexes, BALB/c hairy, mouse, plasma, IV 2 mg/kg, 9.5 h, read-out: Plasma Conc.) was 1.7 ng/mL. For the same compound, the AUC (Pharmacokinetics in mice; both sexes, BALB/c hairy, mouse, plasma, IV 2 mg/kg, ± standard error of the estimate) was 906 ± 90 ng·h/mL, the Vd (Pharmacokinetics in mice; both sexes, BALB/c hairy, mouse, plasma, IV 2 mg/kg, ± standard error of the estimate, read-out: Vss) was 1.71 ± 0.246 L/kg and the half-life (Pharmacokinetics in mice; both sexes, BALB/c hairy, mouse, plasma, IV 2 mg/kg, ± standard error of the estimate, read-out: t½ (converted)) was 1.8 ± 0.3 h. The concentration at 0.13 h (Pharmacokinetics in mice; both sexes, BALB/c hairy, mouse, plasma, PO 10 mg/kg, 0.13 h, read-out: Plasma Conc.) was 140 ng/mL, the concentration at 0.28 h (Pharmacokinetics in mice; both sexes, BALB/c hairy, mouse, plasma, PO 10 mg/kg, 0.28 h, read-out: Plasma Conc.) was 300 ng/mL and the concentration at 0.4 h (Pharmacokinetics in mice; both sexes, BALB/c hairy, mouse, plasma, PO 10 mg/kg, 0.40 h, read-out: Plasma Conc.) was 139 ng/mL. The concentration at 0.65 h (Pharmacokinetics in mice; both sexes, BALB/c hairy, mouse, plasma, PO 10 mg/kg, 0.65 h, read-out: Plasma Conc.) was 389 ng/mL, the concentration at 1.2 h (Pharmacokinetics in mice; both sexes, BALB/c hairy, mouse, plasma, PO 10 mg/kg, 1.2 h, read-out: Plasma Conc.) was 740 ng/mL and the concentration at 1.9 h (Pharmacokinetics in mice; both sexes, BALB/c hairy, mouse, plasma, PO 10 mg/kg, 1.9 h, read-out: Plasma Conc.) was 356 ng/mL. The concentration at 2.6 h (Pharmacokinetics in mice; both sexes, BALB/c hairy, mouse, plasma, PO 10 mg/kg, 2.6 h, read-out: Plasma Conc.) was 450 ng/mL, the concentration at 3.3 h (Pharmacokinetics in mice; both sexes, BALB/c hairy, mouse, plasma, PO 10 mg/kg, 3.3 h, read-out: Plasma Conc.) was 95 ng/mL and the concentration at 4 h (Pharmacokinetics in mice; both sexes, BALB/c hairy, mouse, plasma, PO 10 mg/kg, 4.0 h, read-out: Plasma Conc.) was 169 ng/mL. It also gave a concentration at 4.7 h (Pharmacokinetics in mice; both sexes, BALB/c hairy, mouse, plasma, PO 10 mg/kg, 4.7 h, read-out: Plasma Conc.) of 34 ng/mL.
